Assay results reported in PubChem BioAssay (NCI).
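Grown in 96-well plates, cells were treated for 48 hours with each compound at five concentrations. Insufficient inhibition: endpoint recorded as highest concentration tested. TGI is the concentration that stops growth completely.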

What was measured:
Assay in all cases: DTP human tumour cell line panel, 48 h
[1] = test system: 786-0 renal
[2] = test system: A498 renal
[3] = test system: A549 NSCLC
[4] = test system: ACHN renal
[5] = test system: BT-549 breast
[6] = test system: CAKI-1 renal
[7] = test system: CCRF-CEM leukemia
[8] = test system: COLO 205 colon
[9] = test system: EKVX NSCLC
[10] = test system: HCC-2998 colon
[11] = test system: HCT-116 colon
[12] = test system: HCT-15 colon
[13] = test system: HL-60(TB) leukemia
[14] = test system: HOP-62 NSCLC
[15] = test system: HOP-92 NSCLC
[16] = test system: HS 578T breast
[17] = test system: HT29 colon
[18] = test system: IGROV1 ovarian
[19] = test system: K-562 leukemia
[20] = test system: KM12 colon
[21] = test system: LOX IMVI melanoma
[22] = test system: M14 melanoma
[23] = test system: MALME-3M melanoma
[24] = test system: MCF7 breast
[25] = test system: MDA-MB-231 breast
[26] = test system: MDA-MB-435
[27] = test system: MDA-N
[28] = test system: MOLT-4 leukemia
[29] = test system: NCI-H23 lung
[30] = test system: NCI-H460 lung
[31] = test system: NCI-H522 lung
[32] = test system: NCI/ADR-RES ovarian
[33] = test system: OVCAR-3 ovarian
[34] = test system: OVCAR-4 ovarian
[35] = test system: OVCAR-5 ovarian
[36] = test system: OVCAR-8 ovarian
[37] = test system: PC-3 prostate
[38] = test system: RPMI-8226 leukemia
[39] = test system: SF-268 CNS
[40] = test system: SF-295 CNS
[41] = test system: SK-MEL-2 melanoma
[42] = test system: SK-MEL-28 melanoma
[43] = test system: SK-MEL-5 melanoma
[44] = test system: SK-OV-3 ovarian
[45] = test system: SN12C renal
[46] = test system: SNB-19 CNS
[47] = test system: SNB-75 CNS
[48] = test system: SR leukemia
[49] = test system: SW-620 colon
[50] = test system: T-47D breast
[51] = test system: TK-10 renal
[52] = test system: U251 CNS
[53] = test system: UACC-257 melanoma
[54] = test system: UACC-62 melanoma
[55] = test system: UO-31 renal
[56] = test system: DU-145 prostate
[57] = test system: NCI-H226 lung
[58] = test system: RXF 393 renal
[59] = test system: SF-539 CNS

CC(=O)OCC1OC(O/C=C(\CN=[N+]=[N-])C(C)=O)C(OC(C)=O)C(OC(C)=O)C1OC(C)=O (stereo not given)
TGI [1]: 18.2 µM
TGI [2]: 47.5 µM
TGI [3]: 46.2 µM
TGI [4]: 12.4 µM
TGI [5]: 31.2 µM
TGI [6]: 10.1 µM
TGI [7]: 3.59 µM
TGI [8]: 3.9 µM
TGI [9]: 34.7 µM
TGI [10]: 35 µM
TGI [11]: 13.8 µM
TGI [12]: 18.9 µM
TGI [13]: 5.27 µM
TGI [14]: 70.7 µM
TGI [15]: 56.6 µM
TGI [16]: > 100 µM
TGI [17]: 27.2 µM
TGI [18]: 39.2 µM
TGI [19]: 23.6 µM
TGI [20]: 40.3 µM
TGI [21]: 17.1 µM
TGI [22]: 23.1 µM
TGI [23]: 10.3 µM
TGI [24]: 28 µM
TGI [25]: 27.7 µM
TGI [26]: 26.7 µM
TGI [27]: 30 µM
TGI [28]: 10.5 µM
TGI [29]: 25.6 µM
TGI [30]: 48.9 µM
TGI [31]: 5.08 µM
TGI [32]: > 100 µM
TGI [33]: 28.7 µM
TGI [34]: 43.1 µM
TGI [35]: 32.9 µM
TGI [36]: > 100 µM
TGI [37]: 27.8 µM
TGI [38]: 5.18 µM
TGI [39]: 56.9 µM
TGI [40]: > 100 µM
TGI [41]: 37.2 µM
TGI [42]: 89.7 µM
TGI [43]: 26.2 µM
TGI [44]: > 100 µM
TGI [45]: 29.5 µM
TGI [46]: 83.8 µM
TGI [47]: 33.3 µM
TGI [48]: 7.69 µM
TGI [49]: 16.9 µM
TGI [50]: 13.4 µM
TGI [51]: 19.1 µM
TGI [52]: 26.8 µM
TGI [53]: 17.1 µM
TGI [54]: 25.3 µM
TGI [55]: 21.4 µM

O=C(CC1C=CCS1(=O)=O)NCc1ccccc1 (stereo not given)
TGI [1]: > 100 µM
TGI [3]: > 100 µM
TGI [4]: > 100 µM
TGI [5]: > 100 µM
TGI [6]: > 100 µM
TGI [7]: > 100 µM
TGI [8]: > 100 µM
TGI [56]: > 100 µM
TGI [9]: > 100 µM
TGI [10]: > 100 µM
TGI [11]: > 100 µM
TGI [12]: > 100 µM
TGI [13]: > 100 µM
TGI [14]: > 100 µM
TGI [15]: > 100 µM
TGI [16]: > 100 µM
TGI [17]: > 100 µM
TGI [18]: > 100 µM
TGI [19]: > 100 µM
TGI [20]: > 100 µM
TGI [21]: > 100 µM
TGI [22]: > 100 µM
TGI [24]: > 100 µM
TGI [25]: > 100 µM
TGI [26]: > 100 µM
TGI [27]: > 100 µM
TGI [28]: > 100 µM
TGI [57]: > 100 µM
TGI [29]: > 100 µM
TGI [30]: > 100 µM
TGI [31]: > 100 µM
TGI [32]: > 100 µM
TGI [33]: > 100 µM
TGI [34]: > 100 µM
TGI [35]: > 100 µM
TGI [36]: > 100 µM
TGI [37]: > 100 µM
TGI [58]: > 100 µM
TGI [39]: > 100 µM
TGI [40]: > 100 µM
TGI [59]: > 100 µM
TGI [42]: > 100 µM
TGI [43]: > 100 µM
TGI [44]: > 100 µM
TGI [45]: > 100 µM
TGI [46]: > 100 µM
TGI [47]: > 100 µM
TGI [48]: > 100 µM
TGI [49]: > 100 µM
TGI [50]: > 100 µM
TGI [51]: > 100 µM
TGI [52]: > 100 µM
TGI [53]: > 100 µM
TGI [54]: > 100 µM
TGI [55]: > 100 µM
